Assay results published in patent publication US12662507B2, “Cytosine-type bridged nucleoside amidite crystals and method for producing same” (Yamasa Corporation, priority 2020, dated 2026).

Experiment: Stability test: storage at 50° C. in tightly sealed glass vial, HPLC purity
Type: physicochemical
Experimental: As used herein, the term “decomposition degree” is defined as a value obtained by subtracting a […] when the stability test is performed for a certain period of time under the following conditions. The purity can be determined by HPLC. A higher decomposition degree means that the decomposition progressed and the purity decreased.
(§1) • Temperature: 50° C.; • Storage conditions: 20 mg of crystal is placed in a glass vial and stored in a tightly sealed state; (HPLC Conditions) • Column: YMC-Triart C18, 150×4.6 mm I.D. (manufactured by YMC); • Eluent: 5 mM triethylammonium acetate (pH 7.0) containing 80 vol % acetonitrile; and • Detection method: detection by UV 280 nm.
as §1, with “each of crystals A to C or amorphous form was” for “crystal is”, “state; and • Sampling time: after 1, 2, 3, 4, 6, and 20 (days), each specimen was sampled and subjected to HPLC analysis;” for “state;”, “YMC)” for “YMC);”
The leftmost column in the table indicates the number of elapsed days, and the column “Example 1 (Crystal A)” indicates the HPLC purity of the crystal A of the 5-methylcytosine-type bridged nucleoside amidite obtained in Example 1 (R^1=a benzamido group, R^2=a methyl group, R^3=a dimethoxytrityl group) after the corresponding number of elapsed days, and the column “Example 2 (crystal B)” indicates the HPLC purity of the crystal B of the 5-methylcytosine-type bridged nucleoside amidite obtained in Example 2 (R^1=a benzamido group, R^2=a methyl group, R^3=a dimethoxytrityl group) after the corresponding number of elapsed days, and the column “Example 3 (Crystal C) indicates the HPLC purity of the crystal C of 5-methylcytosine-type bridged nucleoside amidite obtained in Example 3 (R^1=a benzamido group, R^2=a methyl group, R^3=a dimethoxytrityl group) after the corresponding number of elapsed days, and the column “Control” indicates the HPLC purity of the amorphous form used as a control after the corresponding number of elapsed days. In the table, the cells marked by “-” indicate that no measurement was performed.

[1] = HPLC purity on day 0 minus HPLC purity after 20 days at 50° C.
[2] = after 1 day at 50° C., sealed glass vial
[3] = after 2 days at 50° C., sealed glass vial
[4] = after 3 days at 50° C., sealed glass vial
[5] = after 6 days at 50° C., sealed glass vial
[6] = after 20 days at 50° C., sealed glass vial
[7] = day 0 (start of stability test at 50° C.)
[8] = after 4 days at 50° C., sealed glass vial

| SMILES | Decomposition Degree [1] | HPLC purity [2] [%] | HPLC purity [3] [%] | HPLC purity [4] [%] | HPLC purity [5] [%] | HPLC purity [6] [%] | HPLC purity [7] [%] | Decomposition Degree (stored at 50° C. for 20 days, in HPLC purity) [%] | HPLC purity [8] [%] |
| --- | --- | --- | --- | --- | --- | --- | --- | --- | --- |
| COc1ccc(C(OCC23COC(C(n4cc(C)c(NC(=O)c5ccccc5)nc4=O)O2)C3OP(OCCC#N)N(C(C)C)C(C)C)(c2ccccc2)c2ccc(OC)cc2)cc1 (centres unmarked) [Control, N^4-benzoyl-5′-O-(4,4′-dimethoxytrityl)-2′-O-4′-C-methylene-5-methylcytidine-3′-O—[O-(2-cyanoethyl)-N,N-diisopropylphosphoramidite], reference compound] | 6.6 Δ % | 98.2 | 97.9 | 97.9 | 96.9 | 92.1 | 98.7 | 6.6 | – |
| COc1ccc(C(OCC23COC(C(n4cc(C)c(NC(=O)c5ccccc5)nc4=O)O2)C3OP(OCCC#N)N(C(C)C)C(C)C)(c2ccccc2)c2ccc(OC)cc2)cc1 (centres unmarked) [Example 1, N^4-benzoyl-5′-O-(4,4′-dimethoxytrityl)-2′-O-4′-C-methylene-5-methylcytidine-3′-O—[O-(2-cyanoethyl)-N,N-diisopropylphosphoramidite]] | 0.7 Δ % | 98.4 | 98.1 | 98.3 | 98.1 | 98.1 | 98.8 | – | – |
| COc1ccc(C(OCC23COC(C(n4cc(C)c(NC(=O)c5ccccc5)nc4=O)O2)C3OP(OCCC#N)N(C(C)C)C(C)C)(c2ccccc2)c2ccc(OC)cc2)cc1 (centres unmarked) [Example 2, N^4-benzoyl-5′-O-(4,4′-dimethoxytrityl)-2′-O-4′-C-methylene-5-methylcytidine-3′-O—[O-(2-cyanoethyl)-N,N-diisopropylphosphoramidite]] | 0.4 Δ % | 98.7 | 98.6 | – | 98.5 | 98.3 | 98.7 | – | 98.6 |
| COc1ccc(C(OCC23COC(C(n4cc(C)c(NC(=O)c5ccccc5)nc4=O)O2)C3OP(OCCC#N)N(C(C)C)C(C)C)(c2ccccc2)c2ccc(OC)cc2)cc1 (centres unmarked) [Example 3, N^4-benzoyl-5′-O-(4,4′-dimethoxytrityl)-2′-O-4′-C-methylene-5-methylcytidine-3′-O—[O-(2-cyanoethyl)-N,N-diisopropylphosphoramidite]] | 0.5 Δ % | 98.7 | 98.6 | – | 98.5 | 98.1 | 98.6 | – | 98.5 |
